From BindingDB's records for doi:10.1021/cb200305u (Harvard Medical School, 2012) come the findings set out here.

What all share (assay): In Vitro Kinase Assay
Assay [1] concerns the target T1, Aurora kinase C (Homo sapiens, UniProt Q9UQB9).
T1 sequence (Q9UQB9 whole entry): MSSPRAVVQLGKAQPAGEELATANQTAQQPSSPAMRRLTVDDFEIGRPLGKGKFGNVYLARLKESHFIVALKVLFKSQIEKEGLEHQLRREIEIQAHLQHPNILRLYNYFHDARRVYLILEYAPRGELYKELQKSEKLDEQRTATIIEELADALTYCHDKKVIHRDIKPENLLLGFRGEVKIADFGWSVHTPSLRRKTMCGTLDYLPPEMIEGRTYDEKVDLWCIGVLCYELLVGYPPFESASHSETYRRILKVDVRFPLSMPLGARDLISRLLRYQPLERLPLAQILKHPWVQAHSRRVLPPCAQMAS
From the text:
(§1) In vitro kinase assay of Aurora A, B, and C using Z-LYTE technology (Invitrogen) and ATP at Km apparent for each kinase.

Assay [2] concerns the target T2, Aurora kinase A (Homo sapiens, UniProt O14965).
T2 sequence (O14965 whole entry): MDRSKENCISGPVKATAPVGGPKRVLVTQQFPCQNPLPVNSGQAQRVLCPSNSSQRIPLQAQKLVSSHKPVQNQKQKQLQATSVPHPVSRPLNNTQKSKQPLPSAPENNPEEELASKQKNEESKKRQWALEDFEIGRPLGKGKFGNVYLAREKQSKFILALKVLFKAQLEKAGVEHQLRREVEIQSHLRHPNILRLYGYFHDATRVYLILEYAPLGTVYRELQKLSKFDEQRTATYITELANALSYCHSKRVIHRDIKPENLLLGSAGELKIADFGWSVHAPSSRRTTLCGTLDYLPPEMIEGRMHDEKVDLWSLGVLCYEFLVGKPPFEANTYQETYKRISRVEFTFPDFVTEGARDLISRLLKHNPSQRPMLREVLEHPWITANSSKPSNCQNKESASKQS
Excerpt: as §1

Assay [3] deals with Aurora kinase B (Homo sapiens, UniProt Q96GD4).
Chain of Aurora kinase B (Q96GD4 whole entry): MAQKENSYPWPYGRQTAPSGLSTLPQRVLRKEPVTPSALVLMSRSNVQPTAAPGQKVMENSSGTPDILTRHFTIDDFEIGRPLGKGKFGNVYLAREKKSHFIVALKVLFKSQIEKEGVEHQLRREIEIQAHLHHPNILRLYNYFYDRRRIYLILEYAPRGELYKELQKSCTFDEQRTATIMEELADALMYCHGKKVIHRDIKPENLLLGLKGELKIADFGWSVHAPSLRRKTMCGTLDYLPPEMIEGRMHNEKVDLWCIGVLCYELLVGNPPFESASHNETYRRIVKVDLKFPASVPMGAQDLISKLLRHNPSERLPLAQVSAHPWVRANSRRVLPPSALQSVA
Excerpt: as §1

In turn, `CCN(CCCOc1ccc2c(Nc3cc(CC(=O)Nc4cccc(F)c4)n[nH]3)ncnc2c1)CCOP(=O)(O)O` registered an IC50 in assay [1] of 25.3 nM.
As to `CN1C(=O)c2ccccc2N(C)c2nc(Nc3ccc(S(N)(=O)=O)cc3)ncc21`, the values for the IC50 in assay [2] and in assay [3] were 3.4 nM and 8.4 nM, respectively.
`CCN1CCN(C(=O)Cc2ccc(Nc3ncc(F)c(Nc4ccc(C(=O)Nc5ccccc5Cl)cc4)n3)cc2)CC1` [Aurora Inhibitor, 35]: the figures for the IC50 in assay [2], in assay [3] and in assay [1] were 3.2 nM, 1380 nM and 432 nM, respectively.
Take `CN1C(=O)c2ccccc2N(C)c2nc(Nc3ccc(N4CCC(O)CC4)cc3)ncc21` [Benzo[e]pyrimido[5,4-b][1,4]diazepin-6(11H)-one, 1]: the half-maximal inhibitory concentration (IC50) in assay [2] stood at 5.6 nM; in assay [1], 24.6 nM.
As to `CN1CCN(c2ccc(Nc3ncc4c(n3)N(C)c3ccccc3C(=O)N4C)cc2)CC1` [Benzo[e]pyrimido[5,4-b][1,4]diazepin-6(11H)-one, 3], the values for the IC50 in assay [2], in assay [3] and in assay [1] were 7.2 nM, 25.9 nM and 40.5 nM, respectively.
For `CN1C(=O)c2ccccc2N(C)c2nc(Nc3ccc(S(=O)(=O)N4CCC(O)CC4)cc3)ncc21` [Benzo[e]pyrimido[5,4-b][1,4]diazepin-6(11H)-one, 4], the results for the IC50 in assay [2] and in assay [3] were 8.8 nM and 28.6 nM, respectively.
Take `CC1CCN(S(=O)(=O)c2ccc(Nc3ncc4c(n3)N(C)c3ccccc3C(=O)N4C)cc2)CC1` [Benzo[e]pyrimido[5,4-b][1,4]diazepin-6(11H)-one, 5]: the concentration for half-maximal inhibition (IC50) in assay [2] turned out to be 16.8 nM; in assay [3], 45.1 nM.
`CCN1CCN(C(=O)c2ccc(Nc3ncc4c(n3)N(C)c3ccccc3C(=O)N4C)cc2)CC1` [Benzo[e]pyrimido[5,4-b][1,4]diazepin-6(11H)-one, 7]: the concentration for half-maximal inhibition (IC50) came to 5.9 nM in assay [2] and 15.2 nM in assay [3].
In the case of `CCN1CCN(C(=O)Cc2ccc(Nc3ncc4c(n3)N(C)c3ccccc3C(=O)N4C)cc2)CC1` [Benzo[e]pyrimido[5,4-b][1,4]diazepin-6(11H)-one, 8], the values for the half-maximal inhibitory concentration (IC50) in assay [2] and in assay [3] were 6.1 nM and 18.7 nM, respectively.
In the same order, the values of `CN1C(=O)c2ccccc2N(C)c2nc(Nc3ccc(OCc4ccccn4)cc3)ncc21` [Benzo[e]pyrimido[5,4-b][1,4]diazepin-6(11H)-one, 9] are 18.4 nM and 39.3 nM.
As to `CN1C(=O)c2ccccc2N(C)c2nc(Nc3ccc(OCc4cccc(F)c4)cc3)ncc21` [Benzo[e]pyrimido[5,4-b][1,4]diazepin-6(11H)-one, 10], the IC50 was 323 nM in assay [2] and 512 nM in assay [3].
In the same order, the values of `CN1C(=O)c2ccccc2N(C)c2nc(Nc3ccc(OCc4cccc(Cl)c4)cc3)ncc21` [Benzo[e]pyrimido[5,4-b][1,4]diazepin-6(11H)-one, 11] are 83.9 nM and 352 nM.
In the same order, the values of `CN1CCN(C(=O)c2ccc(Nc3ncc4c(n3)N(C)c3ccccc3C(=O)N4C)cc2C(F)(F)F)CC1` [Benzo[e]pyrimido[5,4-b][1,4]diazepin-6(11H)-one, 12] are 9 nM and 84.8 nM.
For `CN1CCN(c2ccc(Nc3ncc4c(n3)N(C)c3ccccc3C(=O)N4C)cc2C(F)(F)F)CC1` [Benzo[e]pyrimido[5,4-b][1,4]diazepin-6(11H)-one, 13] the same measures were 86.8 nM and 774 nM.
For `CN1C(=O)c2ccccc2N(C)c2nc(Nc3ccc(OCc4ccccn4)c(Cl)c3)ncc21` [Benzo[e]pyrimido[5,4-b][1,4]diazepin-6(11H)-one, 14], the IC50 was determined as 53.2 nM in assay [2] and 417 nM in assay [3].
In the same order, the values of `CN1CCN(C(=O)c2cccc(Nc3ncc4c(n3)N(C)c3ccccc3C(=O)N4C)c2)CC1` [Benzo[e]pyrimido[5,4-b][1,4]diazepin-6(11H)-one, 15] are 14.9 nM and 36.7 nM.
For `CN1CCN(Cc2cccc(Nc3ncc4c(n3)N(C)c3ccccc3C(=O)N4C)c2)CC1` [Benzo[e]pyrimido[5,4-b][1,4]diazepin-6(11H)-one, 16] the same measures were 10.7 nM and 19.8 nM.
On to `CN1CCN(c2cccc(Nc3ncc4c(n3)N(C)c3ccccc3C(=O)N4C)c2)CC1` [Benzo[e]pyrimido[5,4-b][1,4]diazepin-6(11H)-one, 17], for which the half-inhibitory concentration (IC50) was 11.9 nM in assay [2] and 55.8 nM in assay [3].
For `CN1c2ccccc2C(=O)Nc2cnc(Nc3ccc(N4CCC(O)CC4)cc3)nc21` [Benzo[e]pyrimido[5,4-b][1,4]diazepin-6(11H)-one, 18] the same measures were 98.5 nM and 216 nM.
Regarding `CN1C(=O)c2ccccc2N(C)c2nc(Nc3ccc(C(=O)N4CCC(O)CC4)c(C(F)(F)F)c3)ncc21` [Benzo[e]pyrimido[5,4-b][1,4]diazepin-6(11H)-one, 19], the IC50 in assay [2] was 5.1 nM; in assay [3], 43.7 nM.
In the same order, the values of `CN1C(=O)c2ccccc2N(C)c2nc(Nc3ccc(C(=O)N4CCC(O)CC4)c(Cl)c3)ncc21` [Benzo[e]pyrimido[5,4-b][1,4]diazepin-6(11H)-one, 20] are 3.2 nM and 14.3 nM.
In the case of `Cc1cc(Nc2ncc3c(n2)N(C)c2ccccc2C(=O)N3C)ccc1C(=O)N1CCN(C)CC1` [Benzo[e]pyrimido[5,4-b][1,4]diazepin-6(11H)-one, 21], the IC50 in assay [2] came to 3.7 nM; in assay [3] it was 14.5 nM.
In the same order, the values of `COc1cc(Nc2ncc3c(n2)N(C)c2ccccc2C(=O)N3C)ccc1C(=O)N1CCN(O)CC1` [Benzo[e]pyrimido[5,4-b][1,4]diazepin-6(11H)-one, 22] are 2.6 nM and 24.2 nM.
In the same order, the values of `CCN1CCN(Cc2ccc(Nc3ncc4c(n3)N(C)c3c(C)cccc3C(=O)N4C)cc2C(F)(F)F)CC1` [Benzo[e]pyrimido[5,4-b][1,4]diazepin-6(11H)-one, 28] are 11.6 nM and 132 nM.
Take `CCN1CCN(Cc2ccc(Nc3ncc4c(n3)N(C)c3c(F)cccc3C(=O)N4C)cc2C(F)(F)F)CC1` [Benzo[e]pyrimido[5,4-b][1,4]diazepin-6(11H)-one, 29]: the IC50 in assay [2] was determined as 13.4 nM; in assay [3], 487 nM; in assay [1], 595 nM.
For the compound `CCN1CCN(Cc2ccc(Nc3ncc4c(n3)N(C)c3cc(C)ccc3C(=O)N4C)cc2C(F)(F)F)CC1` [Benzo[e]pyrimido[5,4-b][1,4]diazepin-6(11H)-one, 30], the IC50 in assay [2] is 146 nM; in assay [3], 230 nM.
For `CCN1CCN(Cc2ccc(Nc3ncc4c(n3)N(C)c3cc(F)ccc3C(=O)N4C)cc2C(F)(F)F)CC1` [Benzo[e]pyrimido[5,4-b][1,4]diazepin-6(11H)-one, 31] the same measures were 298 nM and 586 nM.

Broadly, the IC50 is the concentration that inhibits the measured activity by half. Lower therefore signals inhibition by little substance.
